What all share (assay type): biochemical
For one test, the target named is T1, HDAC6 (Homo sapiens, UniProt Q9UBN7).
T1 construct: purchased Reaction Biology
T1 sequence (Q9UBN7 1-1215): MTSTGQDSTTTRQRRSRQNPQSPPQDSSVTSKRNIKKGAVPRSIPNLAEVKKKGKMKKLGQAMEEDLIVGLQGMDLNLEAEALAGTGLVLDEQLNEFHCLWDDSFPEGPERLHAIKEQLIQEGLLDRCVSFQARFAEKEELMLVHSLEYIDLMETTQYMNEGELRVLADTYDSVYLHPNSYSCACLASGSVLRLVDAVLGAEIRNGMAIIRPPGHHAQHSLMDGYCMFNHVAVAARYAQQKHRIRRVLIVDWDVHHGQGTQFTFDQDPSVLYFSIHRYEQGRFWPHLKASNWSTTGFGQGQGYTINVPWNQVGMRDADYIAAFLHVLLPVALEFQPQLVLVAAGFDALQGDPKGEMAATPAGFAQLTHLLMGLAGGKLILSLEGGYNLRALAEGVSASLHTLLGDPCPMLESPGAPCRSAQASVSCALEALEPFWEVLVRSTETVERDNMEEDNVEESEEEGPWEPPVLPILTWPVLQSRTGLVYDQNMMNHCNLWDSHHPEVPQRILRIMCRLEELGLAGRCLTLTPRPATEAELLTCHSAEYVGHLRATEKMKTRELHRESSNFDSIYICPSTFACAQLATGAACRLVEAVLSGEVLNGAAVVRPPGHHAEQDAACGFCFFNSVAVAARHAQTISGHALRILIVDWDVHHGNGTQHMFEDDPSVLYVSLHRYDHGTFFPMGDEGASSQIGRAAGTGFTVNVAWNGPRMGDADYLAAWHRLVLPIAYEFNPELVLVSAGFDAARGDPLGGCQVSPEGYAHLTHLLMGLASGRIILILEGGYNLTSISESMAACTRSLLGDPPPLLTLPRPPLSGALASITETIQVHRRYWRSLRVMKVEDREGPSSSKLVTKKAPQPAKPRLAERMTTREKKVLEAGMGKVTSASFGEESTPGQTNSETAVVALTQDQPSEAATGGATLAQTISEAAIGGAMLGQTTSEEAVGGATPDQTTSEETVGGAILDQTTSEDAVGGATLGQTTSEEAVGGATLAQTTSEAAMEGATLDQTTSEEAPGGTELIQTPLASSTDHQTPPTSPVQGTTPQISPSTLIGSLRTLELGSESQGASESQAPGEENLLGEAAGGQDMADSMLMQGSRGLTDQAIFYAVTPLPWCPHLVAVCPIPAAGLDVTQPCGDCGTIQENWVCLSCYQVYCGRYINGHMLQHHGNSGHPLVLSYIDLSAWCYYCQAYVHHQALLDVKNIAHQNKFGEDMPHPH
In words: HDAC enzymatic assay (Reaction Biology), HDAC6. The note with it: 10-dose response curve; read-out: Compound IC50 (M), HDAC6. The procedure: (§1) Compound 1 was tested in an enzymatic assay from Reaction Biology® against 10 HDAC isoforms. The IC50 values were derived from a 10-dose response curve.
(§2) Base Reaction buffer: 50 mM Tris-HCl, pH8.0, 137 mM NaCl, 2.7 mM KCl, and 1 mM MgCl2, Add fresh: 1 mg/ml BSA, 1% DMSO
(§3) Fluorogenic HDAC General Substrate (HDAC1, HDAC2, HDAC3, HDAC6, HDAC10, and HDAC11): 50 μM, Arg-His-Lys-Lys(Ac)-AMC
(§4) 1. Delivered 2× enzyme in wells of reaction plate except in the control wells and added buffer to control wells. 2. Delivered compounds in 100% DMSO into the enzyme mixture by Acoustic technology (Echo550; nanoliter range). Spin down and pre-incubation. 3. Delivered 2× Substrate Mixture (Fluorogenic HDAC Substrate and co-factor if applicable) in all reaction wells to initiate the reaction. Spin and shake. 4. Incubated for 30 min for Class 2A, 1 h for HDAC1, 2, 3, and 6, and 2 h for the rest of HDAC isoforms and SIRTs at 30° C. with seal.
(§5) 5. Added Developer with Trichostatin A (or Nicotinamide for SIRTs) to stop the reaction and to generate fluorescent color. 6. The fluorescence that was generated was detected with excitation (Ex) at […] and emission (Em) at 460 nM by the EnVision Multilabel Plate Reader (PerkinElmer®, Santa Clara, Calif., USA).
(§6) IC50 values were derived from a 10-dose response curve.

The target of another test is T2, HDAC5 (Homo sapiens, UniProt Q9UQL6).
T2 construct: purchased Reaction Biology
In words: HDAC enzymatic assay (Reaction Biology), HDAC5. As for the experimental part: as §1, §2
(§7) Class2A Substrate (HDAC4, HDAC5, HDAC7, and HDAC9): Boc-Lys(trifluoroacetyl)-AMC
as §4, §5, §6

Another test concerns the target T3, HDAC2 (Homo sapiens, UniProt Q92769).
T3 construct: purchased Reaction Biology
In words: HDAC enzymatic assay (Reaction Biology), HDAC2. The procedure: as §1, §2, §3, §4, §5, §6

The target in the next test is T4, HDAC9 (Homo sapiens, UniProt Q9UKV0).
T4 construct: purchased Reaction Biology
Description: HDAC enzymatic assay (Reaction Biology), HDAC9. The settings on record: summary of Table 1. The procedure:
as §1, §2, §7, §4, §5, §6

T2 sequence (Q9UQL6 whole entry): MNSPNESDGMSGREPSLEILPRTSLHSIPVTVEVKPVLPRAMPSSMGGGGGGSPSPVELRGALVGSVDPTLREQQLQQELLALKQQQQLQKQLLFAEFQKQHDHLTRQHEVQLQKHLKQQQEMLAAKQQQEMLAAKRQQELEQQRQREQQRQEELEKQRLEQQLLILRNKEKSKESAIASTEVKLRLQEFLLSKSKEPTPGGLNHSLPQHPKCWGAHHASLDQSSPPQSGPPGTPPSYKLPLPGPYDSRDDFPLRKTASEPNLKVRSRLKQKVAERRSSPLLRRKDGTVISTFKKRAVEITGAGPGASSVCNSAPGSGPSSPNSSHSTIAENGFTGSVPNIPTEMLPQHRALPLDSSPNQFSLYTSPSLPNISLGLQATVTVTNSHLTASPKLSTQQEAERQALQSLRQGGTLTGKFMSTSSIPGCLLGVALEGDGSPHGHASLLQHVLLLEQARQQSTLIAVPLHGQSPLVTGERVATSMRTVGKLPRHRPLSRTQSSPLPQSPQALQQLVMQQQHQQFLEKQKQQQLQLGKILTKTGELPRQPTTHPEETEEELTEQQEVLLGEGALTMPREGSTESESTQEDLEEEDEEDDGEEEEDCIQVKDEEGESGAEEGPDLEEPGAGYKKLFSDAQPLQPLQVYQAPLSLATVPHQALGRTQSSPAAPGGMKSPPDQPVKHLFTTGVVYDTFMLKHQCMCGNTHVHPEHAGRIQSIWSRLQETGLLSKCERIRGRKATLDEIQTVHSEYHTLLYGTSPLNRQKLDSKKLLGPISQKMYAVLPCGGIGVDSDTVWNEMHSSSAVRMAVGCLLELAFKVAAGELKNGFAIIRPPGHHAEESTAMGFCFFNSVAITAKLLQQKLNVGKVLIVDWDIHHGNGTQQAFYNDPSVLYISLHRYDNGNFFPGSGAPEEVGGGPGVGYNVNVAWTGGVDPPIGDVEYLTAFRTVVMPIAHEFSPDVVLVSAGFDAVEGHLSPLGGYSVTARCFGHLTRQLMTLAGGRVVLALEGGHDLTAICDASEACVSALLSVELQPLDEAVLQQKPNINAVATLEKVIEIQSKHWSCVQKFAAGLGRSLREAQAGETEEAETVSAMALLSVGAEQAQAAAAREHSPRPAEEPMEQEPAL
T3 sequence (Q92769 whole entry): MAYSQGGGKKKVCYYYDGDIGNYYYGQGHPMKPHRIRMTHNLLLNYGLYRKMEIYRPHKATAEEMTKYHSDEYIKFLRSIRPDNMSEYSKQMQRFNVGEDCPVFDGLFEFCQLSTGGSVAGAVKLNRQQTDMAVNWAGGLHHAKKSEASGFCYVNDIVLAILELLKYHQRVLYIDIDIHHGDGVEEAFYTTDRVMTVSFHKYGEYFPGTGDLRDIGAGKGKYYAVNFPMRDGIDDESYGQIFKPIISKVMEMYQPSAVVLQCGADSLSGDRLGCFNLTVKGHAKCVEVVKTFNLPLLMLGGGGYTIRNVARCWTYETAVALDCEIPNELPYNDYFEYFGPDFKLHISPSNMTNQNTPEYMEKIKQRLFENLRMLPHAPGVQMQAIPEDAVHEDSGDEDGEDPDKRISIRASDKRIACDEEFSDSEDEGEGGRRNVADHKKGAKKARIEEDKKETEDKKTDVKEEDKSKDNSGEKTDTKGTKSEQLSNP
T4 sequence (Q9UKV0 whole entry): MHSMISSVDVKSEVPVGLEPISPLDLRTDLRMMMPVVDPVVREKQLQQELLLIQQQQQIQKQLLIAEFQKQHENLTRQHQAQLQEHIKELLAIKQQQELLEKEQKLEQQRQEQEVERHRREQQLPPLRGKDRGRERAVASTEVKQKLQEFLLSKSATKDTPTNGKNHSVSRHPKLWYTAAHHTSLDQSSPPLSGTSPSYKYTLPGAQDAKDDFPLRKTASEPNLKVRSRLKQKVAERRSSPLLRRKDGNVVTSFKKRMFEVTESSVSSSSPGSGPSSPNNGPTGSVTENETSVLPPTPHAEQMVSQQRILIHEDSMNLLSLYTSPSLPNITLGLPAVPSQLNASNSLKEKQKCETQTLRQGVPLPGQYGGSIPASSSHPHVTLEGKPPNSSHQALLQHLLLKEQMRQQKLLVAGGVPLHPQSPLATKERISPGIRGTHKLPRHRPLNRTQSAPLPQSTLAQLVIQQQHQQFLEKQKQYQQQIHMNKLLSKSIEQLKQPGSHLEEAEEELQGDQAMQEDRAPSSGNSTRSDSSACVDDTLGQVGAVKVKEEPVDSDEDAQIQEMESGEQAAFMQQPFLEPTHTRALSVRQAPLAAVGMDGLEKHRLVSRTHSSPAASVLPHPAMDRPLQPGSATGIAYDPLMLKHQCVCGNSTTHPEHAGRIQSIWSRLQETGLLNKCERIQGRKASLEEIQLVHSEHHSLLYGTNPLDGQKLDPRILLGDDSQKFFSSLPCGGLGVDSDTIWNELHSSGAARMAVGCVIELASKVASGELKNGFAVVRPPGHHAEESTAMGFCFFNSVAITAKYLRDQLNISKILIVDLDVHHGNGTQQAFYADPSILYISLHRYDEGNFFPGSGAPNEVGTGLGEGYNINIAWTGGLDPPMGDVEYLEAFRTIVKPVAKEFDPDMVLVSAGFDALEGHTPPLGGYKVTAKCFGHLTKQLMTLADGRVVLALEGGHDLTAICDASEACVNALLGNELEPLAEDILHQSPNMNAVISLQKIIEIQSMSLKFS

On to `O=C(/C=C/c1ccc(CN(CCOCCOCCNc2cccc3c2C(=O)N(C2CCC(=O)NC2=O)C3=O)CCc2c[nH]c3ccccc23)cc1)NO` (stereo not drawn) [Compound 1, (E)-3-(4-(((2-(1H-indol-3-yl)ethyl)(2-(2-(2-((2-(2,6-dioxopiperidin-3-yl)-1,3-dioxoisoindolin-4-yl)amino)ethoxy)ethoxy)ethyl)amino)methyl)phenyl)-N-hydroxyacrylamide], for which the IC50 (as a rule, the point on the concentration scale where inhibition reaches its midpoint) was 1.6e-07 M at HDAC6; greater than 2e-05 M at HDAC5 (10-dose response curve, read-out: Compound IC50 (M), HDAC5); 3.48e-06 M on HDAC2 (10-dose response curve, read-out: Compound IC50 (M), HDAC2). Further, the “inhibition of enzymatic activity of HDAC5 (in words)” value on HDAC5 (summary of Table 1) is “did not inhibit”. For the same compound, the “inhibition of enzymatic activity of HDAC2 (in words)” value against HDAC2 (summary of Table 1) was “Moderate inhibition”. The “inhibition of enzymatic activity of HDAC9 (in words)” value at HDAC9 is “did not inhibit”.

The values above are taken from patent publication US20220387604A1, “SELECTIVE DUAL HISTONE DEACETYLASE 6/8 (HDAC6/8) DEGRADERS AND METHODS OF USE THEREOF” (DANA-FARBER CANCER INSTITUTE, INC., priority 2019, published 2022).
